The values that follow come from patent US20250136595A1, “ACYLATED HETEROCYCLIC QUINAZOLINE DERIVATIVES AS INHIBITORS OF ERBB2” (Enliven Inc., priority 2022, published 2025).

Some results are limits rather than exact numbers.

The target in assay [1] is T1, phosphorylated ERBB2 (pERBB2) (Homo sapiens, UniProt P04626).
T1 construct: endogenous in cells; host or cells: BT-474
As to the kind of experiment: Detection of phosphorylated ERBB2 (pERBB2) by ELISA in BT-474 cells. It counts as cell-based. The note with it: four hour incubation with compound. On the procedure:
BT-474 cells were seeded into a 96-well at 2.0*10^4 cells/100 μl/well. Compounds were dissolved and serially diluted in DMSO. The compounds were then were added, mixed, and incubated for four hours at 37° C., 5% CO2. Compounds were added using four-fold dilutions at final concentrations ranging from 10 μM to 0.01 nM. Following the four hour incubation with compounds, cell lysates were prepared. Plates were centrifuged for 5 min at 3000 RPM, and supernatant was removed from each well. Cells were washed 3 times by resuspension in 150 μl PBS, followed by centrifugation and removal of the supernatant, as above. […] Cells were incubated with lysis buffer for 1 hour at 4° C., and then stored at -80° C. Enzyme-linked immunosorbent assays (ELISA) were performed to measure phosphorylated ERBB2 levels. […] The next day, plates were washed with PBS+0.05% Tween20 (PBST). 150 μl of 5% BSA blocking solution was added for 1 hour at room temperature, with shaking. Plates were washed with PBST. Cell lysates were thawed and 100 μl of lysate was added to the ELISA plate. The plates were incubated for 2 hours at room temperature, with shaking. […] Plates were incubated for 1 hour at room temperature, with shaking. Plates were then washed with PBST, and 100 μl TMB substrate solution (R&D Systems, cat #DY999) was added. Plate were incubated in the dark for 20 minutes at room temperature. 50 μl of Stop solution (R&D Systems, cat #DY994) (50 μl) was added to each well and mixed. Optical density at 450 nm was read on an EnSpire plate reader (Perkin Elmer). The remaining kinase activity by calculated using the following formula: % Relative activity=100×([…]). The low and high control values (“LC” and “HC”) were generated from lysate from wells without cells or with cells treated with 0.1% DMSO, respectively.
For orientation: ELISA stands for enzyme-linked immunosorbent assay.

Assay [2] addresses T2, phosphorylated EGFR (pEGFR) (Homo sapiens, UniProt P00533).
T2 construct: performed to measure phosphorylated EGFR levels using A431 cells; endogenous in cells; host or cells: A431
As to the kind of experiment: Detection of phosphorylated EGFR (pEGFR) in EGF-stimulated A431 cells (AlphaLISA). In kind it is cell-based. To be noted: A431 cells (10% FBS), 4 hours incubation, EGF 30 ng/mL for 10 minutes. On the procedure:
Enzyme-linked immunosorbent assays (ELISA) were performed to measure phosphorylated EGFR levels using A431 cells (10% FBS). A431 (1.0*10^4 cells/40 μl/well) cells were seeded in 384 well. Compounds were dissolved in DMSO, serially diluted in DMSO and then were added, mixed, and incubated for 4 hours at 37° C., 5% CO2. Following the 4-hours incubation, cells were stimulated for 10 minutes with EGF (Invitrogen, cat #PHG0311) at a final concentration of 30 ng/mL in the incubator. The media was aspirated and cells were lysed in 10 μL lysis buffer with protease and phosphatase inhibitors (PerkinElmer, cat #ALSU-PEGFR-A50K). The plates were placed on a shaker for 5 minutes and then incubated for 30 min at 4° C. for complete lysis. The lysate was transferred to an Optiplate (Perkin Elmer, cat #6007290).
Acceptor mix (PerkinElmer, cat #ALSU-PEGFR-A50K) was prepared just before use and 5 μL was dispensed to all the wells, followed by a 1.5-2 h incubation at room temperature in dark. The donor mix (PerkinElmer, cat #ALSU-PEGFR-A50K) was prepared under low light conditions prior to use and 5 μl of donor mix was added to all the wells under subdued lighting or green filters. The plates were placed on a shaker for 5 min, sealed, and incubated overnight at room temperature in dark. Plates were read on the Envision (PerkinElmer) using standard AlphaLISA settings.
The percentage of inhibition on EGFR phosphorylation was calculated following equation: % Inhibition=100×(LumHC−LumSample)/(LumHC−LumLC). The low and high controls (LC/HC) are generated from lysate from wells with cells treated with DMSO or […] Staurosporine (BioAustralis, cat #BIA-S1086), […]. IC50 values were calculated by fitting the Curve using XLfit (v5.3.1.3), equation 201: Y=Bottom+ (Top−Bottom)/(1+10^((LogIC50−X)*HillSlope)).
Background: Bead proximity is the source of the signal in Alpha formats.

Assay [3] addresses Ba/F3 ERBB2 YVMA (Homo sapiens, UniProt P04626, DUP772-775, cells depend on it). As to the kind of experiment: Cell viability assay (CellTiter Glo) in Ba/F3 cells engineered to express ERBB2 YVMA. In kind it is cell-based, mouse. The note with it: Ba/F3 cells expressing human ERBB2 YVMA mutant, 72 hours, % viability, read-out: Ba/F3 ERBB2 YVMA IC50. On the procedure:
Cells were treated with compounds, and cell viability was measured as a metric of kinase inhibition.
The Ba/F3 cell line is IL-3-dependent mouse cell line derived from the C3H mouse strain. Ba/F3 cell lines were engineered to express human ERBB2 or EGFR kinases, rendering the cells IL-3 independent. The lines were generated via retroviral transduction utilizing a Moloney murine leukemia virus (MMLV) promoter, and constructs are stably integrated into the cell genome. The sequences of the ERBB2 and EGFR genes used were NCBI Reference Sequences NM_004448.3 and NM_005228.3, respectively.
Similarly, Ba/F3 cell lines engineered to express EGFR, ERBB2, or ERBB2 mutants were grown, harvested, counted and seeded at 3000 cells per well in 96-well plates for the data sets shown in Tables B3-B4. A subset of wells contained media only (low control, “LC”).
Table B1 provides the growth media and number of cells seeded per well for the each cell line.
Compounds were dissolved in DMSO and serially diluted. Serially-diluted compound or a DMSO only control (high control, “HC”) was added to the plated cells in each well. […] The final proportion of DMSO never exceeded 0.1%.
Plates were placed in a 37° C., 5% CO2 incubator for 72 hours. Plates were then removed from the incubator and equilibrated for 15 minutes at room temperature. 40 μl of CellTiter Glo reagent (Promega) was added to measure the relative level of metabolically active cells by quantifying intracellular ATP concentrations. Plates were incubated for 30 minutes at room temperature, and luminescence was measured. Percent viability was normalized to a vehicle control only using the following formula: % viability=100×(Lumsample−LumLC)/(LumHC−LumLC). Graphical curves were fitted using a nonlinear regression model with a sigmoidal dose response.

As usually defined, the IC50 is the point on the concentration scale where inhibition reaches its midpoint.

Ba/F3 ERBB2 YVMA, sequence (P04626 with tags, fused parts or gaps DUP772-775): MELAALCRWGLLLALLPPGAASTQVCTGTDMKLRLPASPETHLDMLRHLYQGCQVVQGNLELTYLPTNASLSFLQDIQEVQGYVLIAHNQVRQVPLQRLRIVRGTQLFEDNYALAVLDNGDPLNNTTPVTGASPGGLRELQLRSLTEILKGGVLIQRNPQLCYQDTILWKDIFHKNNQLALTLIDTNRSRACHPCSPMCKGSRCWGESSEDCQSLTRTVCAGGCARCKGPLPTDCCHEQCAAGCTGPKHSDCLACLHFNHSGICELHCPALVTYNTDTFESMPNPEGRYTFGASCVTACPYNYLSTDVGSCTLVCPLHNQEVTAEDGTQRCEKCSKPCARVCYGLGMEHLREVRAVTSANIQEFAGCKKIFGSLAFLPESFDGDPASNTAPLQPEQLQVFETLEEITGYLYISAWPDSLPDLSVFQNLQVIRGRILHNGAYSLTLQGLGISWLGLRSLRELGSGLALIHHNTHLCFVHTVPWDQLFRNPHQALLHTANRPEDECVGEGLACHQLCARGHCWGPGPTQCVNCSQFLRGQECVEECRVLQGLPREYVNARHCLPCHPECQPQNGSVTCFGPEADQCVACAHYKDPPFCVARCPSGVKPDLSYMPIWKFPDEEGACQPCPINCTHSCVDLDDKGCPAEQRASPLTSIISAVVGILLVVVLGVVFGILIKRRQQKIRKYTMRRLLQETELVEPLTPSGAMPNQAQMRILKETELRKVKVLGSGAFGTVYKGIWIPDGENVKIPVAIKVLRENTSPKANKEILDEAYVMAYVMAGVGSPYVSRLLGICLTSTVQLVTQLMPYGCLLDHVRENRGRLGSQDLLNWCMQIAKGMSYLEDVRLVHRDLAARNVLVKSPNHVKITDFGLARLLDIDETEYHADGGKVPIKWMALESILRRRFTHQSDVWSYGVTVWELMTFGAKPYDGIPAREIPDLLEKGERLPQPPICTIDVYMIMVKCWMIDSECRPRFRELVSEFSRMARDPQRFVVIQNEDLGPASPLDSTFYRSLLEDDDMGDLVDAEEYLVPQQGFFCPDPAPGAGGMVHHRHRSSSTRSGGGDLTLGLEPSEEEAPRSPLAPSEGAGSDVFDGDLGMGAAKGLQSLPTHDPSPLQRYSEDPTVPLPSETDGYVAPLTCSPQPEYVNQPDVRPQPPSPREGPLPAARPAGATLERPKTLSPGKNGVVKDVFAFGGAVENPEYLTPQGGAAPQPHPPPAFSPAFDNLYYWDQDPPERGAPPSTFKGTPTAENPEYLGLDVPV
T2 sequence (P00533 25-1210): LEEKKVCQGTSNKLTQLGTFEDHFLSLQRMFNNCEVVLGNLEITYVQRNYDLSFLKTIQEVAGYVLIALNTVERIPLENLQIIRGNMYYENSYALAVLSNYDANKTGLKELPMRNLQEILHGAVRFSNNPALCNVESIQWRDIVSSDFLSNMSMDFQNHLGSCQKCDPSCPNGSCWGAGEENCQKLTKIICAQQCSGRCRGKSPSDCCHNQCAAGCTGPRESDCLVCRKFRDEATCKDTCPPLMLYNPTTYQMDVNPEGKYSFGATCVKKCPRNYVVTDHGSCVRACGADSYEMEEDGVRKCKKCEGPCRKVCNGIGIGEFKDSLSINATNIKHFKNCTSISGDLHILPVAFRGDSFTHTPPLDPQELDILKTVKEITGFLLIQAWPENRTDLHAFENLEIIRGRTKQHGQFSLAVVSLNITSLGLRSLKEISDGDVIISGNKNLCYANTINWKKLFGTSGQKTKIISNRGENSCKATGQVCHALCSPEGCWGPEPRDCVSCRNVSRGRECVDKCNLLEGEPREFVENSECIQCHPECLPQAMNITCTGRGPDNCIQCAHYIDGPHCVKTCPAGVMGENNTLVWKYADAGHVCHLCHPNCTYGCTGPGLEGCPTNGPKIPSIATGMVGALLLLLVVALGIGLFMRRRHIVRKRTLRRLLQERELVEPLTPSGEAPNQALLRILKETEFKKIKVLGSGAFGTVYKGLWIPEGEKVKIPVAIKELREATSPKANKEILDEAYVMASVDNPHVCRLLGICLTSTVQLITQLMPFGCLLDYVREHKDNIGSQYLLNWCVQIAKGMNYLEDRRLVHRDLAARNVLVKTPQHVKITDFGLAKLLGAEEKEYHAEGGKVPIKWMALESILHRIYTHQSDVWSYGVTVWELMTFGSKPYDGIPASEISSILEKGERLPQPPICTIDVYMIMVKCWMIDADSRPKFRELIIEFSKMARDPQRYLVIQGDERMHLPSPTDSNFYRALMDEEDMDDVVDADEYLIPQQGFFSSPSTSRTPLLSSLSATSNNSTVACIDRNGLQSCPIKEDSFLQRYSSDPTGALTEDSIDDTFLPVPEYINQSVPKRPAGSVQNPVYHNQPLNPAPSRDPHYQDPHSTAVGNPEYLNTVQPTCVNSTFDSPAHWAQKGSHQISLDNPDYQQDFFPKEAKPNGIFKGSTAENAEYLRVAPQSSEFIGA
T1 sequence (P04626 23-1255): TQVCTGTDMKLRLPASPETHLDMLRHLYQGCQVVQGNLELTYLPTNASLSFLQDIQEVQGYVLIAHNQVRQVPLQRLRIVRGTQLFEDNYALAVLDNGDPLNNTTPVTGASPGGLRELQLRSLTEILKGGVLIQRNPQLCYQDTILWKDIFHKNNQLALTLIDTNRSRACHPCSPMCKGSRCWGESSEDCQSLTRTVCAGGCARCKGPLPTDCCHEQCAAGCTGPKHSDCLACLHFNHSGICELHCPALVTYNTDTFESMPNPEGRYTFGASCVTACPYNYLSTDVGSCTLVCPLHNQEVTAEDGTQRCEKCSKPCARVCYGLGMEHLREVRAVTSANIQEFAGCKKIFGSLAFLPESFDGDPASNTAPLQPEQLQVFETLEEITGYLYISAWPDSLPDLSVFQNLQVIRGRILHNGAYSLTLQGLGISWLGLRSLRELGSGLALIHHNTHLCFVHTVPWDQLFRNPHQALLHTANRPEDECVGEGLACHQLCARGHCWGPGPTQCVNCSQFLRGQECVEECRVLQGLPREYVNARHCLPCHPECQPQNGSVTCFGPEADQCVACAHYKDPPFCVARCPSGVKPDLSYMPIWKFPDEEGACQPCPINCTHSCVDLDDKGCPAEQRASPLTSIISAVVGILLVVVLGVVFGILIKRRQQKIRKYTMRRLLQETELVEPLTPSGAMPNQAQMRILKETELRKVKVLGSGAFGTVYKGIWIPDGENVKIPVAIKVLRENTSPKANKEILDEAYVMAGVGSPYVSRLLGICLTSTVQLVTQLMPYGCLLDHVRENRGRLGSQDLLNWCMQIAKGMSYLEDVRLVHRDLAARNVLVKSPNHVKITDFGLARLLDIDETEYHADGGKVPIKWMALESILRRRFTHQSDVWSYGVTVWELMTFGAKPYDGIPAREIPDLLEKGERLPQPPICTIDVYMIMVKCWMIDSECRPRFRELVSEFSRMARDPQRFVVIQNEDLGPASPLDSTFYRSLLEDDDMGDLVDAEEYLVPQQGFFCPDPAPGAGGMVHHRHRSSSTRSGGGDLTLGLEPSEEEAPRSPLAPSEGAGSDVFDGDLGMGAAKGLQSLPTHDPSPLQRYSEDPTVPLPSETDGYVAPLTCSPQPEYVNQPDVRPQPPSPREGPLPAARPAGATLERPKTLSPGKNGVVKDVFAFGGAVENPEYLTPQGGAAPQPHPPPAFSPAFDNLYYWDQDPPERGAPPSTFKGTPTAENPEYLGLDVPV

For `CC#CC(=O)N1CCN(c2ccc3ncnc(Nc4ccc(Oc5ccn6ncnc6c5)c(C)c4)c3n2)CC1` [Compound 8, 1-(4-{4-[(3-methyl-4-{[1,2,4]triazolo[1,5-a]pyridin-7-yloxy}phenyl)amino]pyrido[3,2-d]pyrimidin-6-yl}piperazin-1-yl)but-2-yn-1-one], the figures for the IC50 in assay [1] and in assay [2] were 27.1 nM and 5170 nM, respectively. Besides, in assay [3], the GI50 is 18.9 nM.

Turning to `C=CC(=O)N1CCN(c2ncc3ncnc(Nc4ccc(Oc5ccc6c(c5)ncn6C)c(C)c4)c3n2)CC1` [Compound 130, 1-(4-(8-((3-methyl-4-((1-methyl-1H-benzo[d]imidazol-5-yl)oxy)phenyl)amino)pyrimido[5,4-d]pyrimidin-2-yl)piperazin-1-yl)prop-2-en-1-one], the half-maximal inhibitory concentration (IC50) in assay [1] came to 13 nM; in assay [2] it was 1480 nM. In addition, in assay [3], the GI50 turned out to be 15 nM.

Consider `C=CC(=O)N1CCN(c2cc3c(Nc4ccc(OC5CCN(C(=O)C6CCCC6)CC5)c(C)c4)ncnc3cn2)CC1` [Compound 2, 1-(4-(4-((4-((1-(cyclopentanecarbonyl)piperidin-4-yl)oxy)-3-methylphenyl)amino)pyrido[3,4-d]pyrimidin-6-yl)piperazin-1-yl)prop-2-en-1-one], for which the values for the IC50 in assay [1] and in assay [2] were 48.2 nM and 2690 nM, respectively. The GI50 in assay [3] was determined as 20.3 nM.

For `C=CC(=O)N1CCN(c2ccc3ncnc(Nc4ccc(CN5CCn6ncnc6C5)c(C)c4)c3c2)CC1` [Compound 101, 1-(4-{4-[(3-methyl-4-{5H,6H,8H-[1,2,4]triazolo[1,5-a]pyrazin-7-ylmethyl}phenyl)amino]quinazolin-6-yl}piperazin-1-yl)prop-2-en-1-one], the IC50 in assay [1] was 99 nM; in assay [2] it was > 10000 nM. The GI50 in assay [3] was > 500 nM.

`C=CC(=O)N1C2CCC1CN(c1ccc3ncnc(Nc4ccc(Cc5ccc6c(c5)ncn6C)c(C)c4)c3n1)C2` [Compound 123, 1-(3-(4-((3-methyl-4-((1-methyl-1H-benzo[d]imidazol-5-yl)methyl)phenyl)amino)pyrido[3,2-d]pyrimidin-6-yl)-3,8-diazabicyclo[3.2.1]octan-8-yl)prop-2-en-1-one]: the IC50 in assay [1] was found to be 53 nM; in assay [2] it was 1270 nM. The GI50 in assay [3] came out at 9.61 nM.

Take `CC#CC(=O)N1CCN(c2ncc3ncnc(Nc4ccc(Oc5ccc6c(c5)ncn6C)c(C)c4)c3n2)C[C@H]1C` [Compound 72, (R)-1-(2-methyl-4-(8-((3-methyl-4-((1-methyl-1H-benzo[d]imidazol-5-yl)oxy)phenyl)amino)pyrimido[5,4-d]pyrimidin-2-yl)piperazin-1-yl) but-2-yn-1-one]: the IC50 in assay [1] came out at 67.9 nM; in assay [2], 2680 nM. Also, in assay [3], the GI50 turned out to be 10.1 nM.

Regarding `C=CC(=O)N1CCN(c2ccc3ncnc(Nc4ccc(Oc5ccn6ncnc6c5)c(C)c4)c3n2)CC12CC2` [Compound 118, 1-(7-{4-[(3-methyl-4-{[1,2,4]triazolo[1,5-a]pyridin-7-yloxy}phenyl)amino]pyrido[3,2-d]pyrimidin-6-yl}-4,7-diazaspiro[2.5]octan-4-yl)prop-2-en-1-one], the IC50 amounted to 11.5 nM in assay [1] and 107 nM in assay [2]. Besides, in assay [3], the GI50 was 7.76 nM.

With `C=CC(=O)N1CCC2(C1)CN(c1ccc3ncnc(Nc4ccc(Oc5ccn6ncnc6c5)c(C)c4)c3n1)C2` [Compound 21, 1-(2-{4-[(3-methyl-4-{[1,2,4]triazolo[1,5-a]pyridin-7-yloxy}phenyl)amino]pyrido[3,2-d]pyrimidin-6-yl}-2,6-diazaspiro[3.4]octan-6-yl)prop-2-en-1-one], the half-maximal inhibitory concentration (IC50) is 12.1 nM in assay [1] and 9420 nM in assay [2]. The GI50 in assay [3] amounted to 9.76 nM.

In the case of `CC#CC(=O)N1CCN(c2ccc3ncnc(Nc4ccc(O[C@H]5CCCOC5)c(C)c4)c3n2)CC1` [Compound 33, 1-{4-[4-({3-methyl-4-[(3S)-oxan-3-yloxy]phenyl}amino)pyrido[3,2-d]pyrimidin-6-yl]piperazin-1-yl}but-2-yn-1-one], the IC50 in assay [1] came out at 524 nM; in assay [2], 4050 nM. In assay [3], the GI50 came out at 237 nM.

For `C=CC(=O)N1CCN(c2ncc3ncnc(Nc4ccc(Oc5ccc6c(c5)ncn6C)c(C)c4)c3n2)C[C@H]1C` [Compound 57, (R)-1-(2-methyl-4-(8-((3-methyl-4-((1-methyl-1H-benzo[d]imidazol-5-yl)oxy)phenyl)amino)pyrimido[5,4-d]pyrimidin-2-yl)piperazin-1-yl)prop-2-en-1-one], the IC50 in assay [1] stood at 25.8 nM; in assay [2], 2880 nM. For the same compound, the GI50 in assay [3] is 21 nM.

Turning to `C=CC(=O)N1CCN(c2ccc3ncnc(Nc4ccc(Cc5ccc6c(c5)ncn6C)c(C)c4)c3c2)C[C@H]1C` [Compound 54, 1-[(2R)-2-methyl-4-[4-({3-methyl-4-[(1-methyl-1,3-benzodiazol-5-yl)methyl]phenyl}amino)quinazolin-6-yl]piperazin-1-yl]prop-2-en-1-one], the IC50 is 21.9 nM in assay [1] and 2420 nM in assay [2]. In assay [3], the GI50 was 48.2 nM.

As for `C=CC(=O)N1CCN(c2ccc3ncnc(Nc4ccc(Cc5ccc6c(c5)ncn6C)c(C)c4)c3n2)C[C@H]1C` [Compound 53, 1-[(2R)-2-methyl-4-[4-({3-methyl-4-[(1-methyl-1,3-benzodiazol-5-yl)methyl]phenyl}amino)pyrido[3,2-d]pyrimidin-6-yl]piperazin-1-yl]prop-2-en-1-one], the IC50 stood at 35.4 nM in assay [1] and 1460 nM in assay [2]. The GI50 in assay [3] came out at 14 nM.

`C=CC(=O)N1CCN(c2ccc3ncnc(Nc4ccc(Oc5ccn6ncnc6c5)c(C)c4)c3n2)CC1(C)C` [Compound 108, 1-(4-(4-((4-([1,2,4]triazolo[1,5-a]pyridin-7-yloxy)-3-methylphenyl)amino)pyrido[3,2-d]pyrimidin-6-yl)-2,2-dimethylpiperazin-1-yl)prop-2-en-1-one]: the IC50 worked out at 10 nM in assay [1] and 695 nM in assay [2]. Moreover, in assay [3], the GI50 was found to be 10.9 nM.
